Reference: patent publication US20080096894A1, “Anti-Bacterial Compounds” (ASTON UNIVERSITY, priority 2005, published 2008)
Structures can show the parent of a compound that is named as a salt. Where two headings read alike, the source gives them in different places.

Assays:
[1] = test system: human mononuclear leucocytes (MNL, white blood cells); assay: direct leucocyte toxicity, tryptan blue exclusion, 18 hours; format: cell-based; settings: human, 18 h, 1 mM
Experimental: The in vitro assay used human mononuclear leucocytes (MNL, white blood cells) which were incubated with the test compound for 18 hours and cell death determined by tryptan blue exclusion (tryptan blue is a dye, which stains dead cells, whilst living cells extrude it).
The toxicity of 4PYcq and the aldehyde cq and pyridine-4-carboxamidrazone precursors were assessed using the same in vitro assay with human mononuclear leucocytes as that described above. The toxicity of related compounds, 2-hydroxybenzylidene-pyridine-2-carboxamidrazone 4PYbw and benzylidenepyridine-2-carboxamidrazone 4PYaa were also examined.

MRSA = assay: MIC, agar dilution, multipoint inoculator; format: cell-based, methicillin-resistant Staphylococcus aureus
Outline: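 Agar dilution MIC on Mueller Hinton agar, multipoint inoculator delivering 10^4 colony forming units per spot. MRSA values are ranges across ten clinical MRSA strains; S. aureus NCTC 6571 as reference strain.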

[2] = test system: human mononuclear leucocytes (MNL, white blood cells); settings: rat liver microsomes added; Coleman et al 1999; cited from earlier work
Micrococcus roseus = assay: MIC, doubling dilution in 96-well microtitre plate; format: cell-based
Experimental: (§1) The compound was tested as follows. […] The wells were inoculated with organism ([…] of medium containing 10^6 cfu/mL) and the plates were incubated at 37° C. overnight. Where growth of organism occurred this was observed as a small button when viewed from underneath the plate. The MIC was determined as the lowest concentration inhibiting growth.

Micrococcus luteus = assay: MIC, doubling dilution in 96-well microtitre plate; format: cell-based
Experimental: as §1

Moraxella catarrhalis = assay: MIC, doubling dilution in 96-well microtitre plate; format: cell-based
Experimental: as §1

Bacillus cereus = assay: MIC, doubling dilution in 96-well microtitre plate; format: cell-based
Experimental: as §1

Enterococcus faecium = assay: MIC, doubling dilution in 96-well microtitre plate; format: cell-based; settings: Enterococcus faecium ATCC 10541
Experimental: as §1

Bacillus subtilis = assay: MIC, doubling dilution in 96-well microtitre plate; format: cell-based
Experimental: as §1

Bacillus megarerium = assay: MIC, doubling dilution in 96-well microtitre plate; format: cell-based
Experimental: as §1

[3] = test system: Enterococcus faecalis NCTC 5957; assay: MIC, doubling dilution in 96-well microtitre plate; format: cell-based
Experimental: as §1

[4] = test system: Staphylococcus epidermidis NCTC 11047; assay: MIC, doubling dilution in 96-well microtitre plate; format: cell-based
Experimental: as §1

[5] = test system: Staphylococcus aureus (MRSA) 96-7475; assay: MIC, doubling dilution in 96-well microtitre plate; format: cell-based
Experimental: as §1

[6] = test system: Staphylococcus aureus NCTC 6571; assay: MIC, doubling dilution in 96-well microtitre plate; format: cell-based
Experimental: as §1

[7] = test system: Staphylococcus aureus W11 MRSA; assay: MIC, doubling dilution in 96-well microtitre plate; format: cell-based
Experimental: as §1

[8] = test system: Streptococcus bovis NCTC 11436; assay: MIC, doubling dilution in 96-well microtitre plate; format: cell-based
Experimental: as §1

[9] = test system: Staphylococcus aureus NCTC 10788; assay: MIC, doubling dilution in 96-well microtitre plate; format: cell-based
Experimental: as §1

S. haemolyticus = assay: MIC, agar dilution, multipoint inoculator; format: cell-based; settings: Staphylococcus haemolyticus, 18 h
Outline: (§2)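 Compounds were serially incorporated into Mueller Hinton agar, then each strain was spotted by multipoint inoculator at 10^4 colony forming units per spot. MIC was determined from the dilution series.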

E. faecalis = assay: MIC, agar dilution, multipoint inoculator; format: cell-based; settings: Enterococcus faecalis, upper value of MIC reading
Outline: as §2

B. bronchiseptica = assay: MIC, agar dilution, multipoint inoculator; format: cell-based; settings: Bordetella bronchiseptica, NCTC8344, 18 h
Outline: as §2

S. aboni = assay: MIC, agar dilution, multipoint inoculator; format: cell-based; settings: S. aboni NCTC 6017; upper value of MIC reading
Outline: as §2

S. maltophilia = assay: MIC, agar dilution, multipoint inoculator; format: cell-based; settings: Stenotrophomonas maltophilia, NCTC10257, 18 h
Outline: as §2

E. faecium = assay: MIC, agar dilution, multipoint inoculator; format: cell-based, Enterococcus faecium; settings: Enterococcus faecium
Outline: as §2

S. marcesens = assay: MIC, agar dilution, multipoint inoculator; format: cell-based, Serratia marcescens; settings: Serratia marcescens, 18 h
Outline: as §2

[10] = test system: vancomycin resistant enterococci; assay: MIC, agar dilution, multipoint inoculator; format: cell-based
Experimental: (§3) This activity was measured using a multipoint inoculator method as follows. The MIC for each compound was measured using an agar dilution method (Onda, H., et al., Int. J. Antimicrob. Agents. 18, 263 (2001)) (Mueller Hinton agar) by means of a multipoint inoculator delivering 10^4 colony forming units per spot.
It will be noted that compound 4PYcq was active against all strains of MRSA as well as all other Gram positive bacteria. For this reason it was further tested against some vancomycin resistant enterococci, using the multipoint inoculator method described above. It can be seen from Table 5 that the high level activity was retained.

P. auriginosa = assay: MIC, agar dilution, multipoint inoculator; format: cell-based, Pseudomonas aeruginosa; settings: Pseudomonas aeruginosa, NCTC6749, 18 h
Outline: as §2

K. pneumoniae = assay: MIC, agar dilution, multipoint inoculator; format: cell-based, Klebsiella pneumoniae; settings: Klebsiella pneumoniae, 18 h
Outline: as §2

E. coli = assay: MIC, agar dilution, multipoint inoculator; format: cell-based, Escherichia coli
Experimental: as §3

S. epidemisis = assay: MIC, agar dilution, multipoint inoculator; format: cell-based, Staphylococcus epidermidis; settings: Staphylococcus epidermidis
Outline: as §2

S. aureus = assay: MIC, agar dilution, multipoint inoculator; format: cell-based, Staphylococcus aureus; settings: Staphylococcus aureus
Outline: as §2

E. cloacae = assay: MIC, agar dilution, multipoint inoculator; format: cell-based, Enterobacter cloacae; settings: Enterobacter cloacae, NCTC11582, 18 h
Experimental: as §3

E. faecium isolates = settings: against 86% of E. faecium isolates; cited from earlier work

N/C(=N\N=C\c1cccc2ccccc12)c1ccccn1 [Compound 2PYal]
% Leucocyte Death [1]: 17.1 ± 4.9% | MIC (MRSA; Staphylococcus aureus, MRSA, 18 h, panel of ten MRSA strains (clinical isolates), read-out: MRSA MIC range): > 256 µg/mL | cytotoxicity in the presence of the metabolising system (in words) [2]: marked reduction in cytotoxicity

NC(=NN=Cc1cccc2ccccc12)c1cc[n+]([O-])cc1 [Compound 4PYOal]
MIC (Micrococcus roseus): 16 to 32 µg/mL | MIC (Micrococcus luteus): 16 to 32 µg/mL | MIC (Moraxella catarrhalis): 16 to 32 µg/mL | MIC (Bacillus cereus): 8 to 16 µg/mL | MIC (Enterococcus faecium): 16 to 32 µg/mL | MIC (Bacillus subtilis): 16 to 32 µg/mL | MIC (Bacillus megarerium): 16 to 32 µg/mL

NC(=NN=Cc1c2ccccc2cc2ccccc12)c1cc[n+]([O-])cc1 [Compound 4PYOam]
MIC [3]: 64 to 128 µg/mL | MIC (Micrococcus roseus): 32 to 64 µg/mL | MIC (Enterococcus faecium): 64 to 128 µg/mL | MIC (Bacillus subtilis): 64 to 128 µg/mL

NC(=NN=Cc1ccccc1Sc1ccc(Cl)cc1)c1cc[n+]([O-])cc1 [Compound 4PYOeh]
MIC (Micrococcus roseus): 32 to 64 µg/mL | MIC (Moraxella catarrhalis): 64 to 128 µg/mL

CC(=O)Nc1ccc(C=NN=C(N)c2cc[n+]([O-])cc2)cc1 [Compound 4PYOfa]
MIC (Micrococcus roseus): 16 to 32 µg/mL | MIC (Bacillus cereus): 8 to 16 µg/mL | MIC (Enterococcus faecium): 16 to 32 µg/mL | MIC (Bacillus subtilis): 4 to 8 µg/mL | MIC (Bacillus megarerium): 16 to 32 µg/mL

CC(C)(C)c1ccc(C=NN=C(N)c2cc[n+]([O-])cc2)cc1 [Compound 4PYOfb]
MIC (Micrococcus roseus): 8 to 16 µg/mL | MIC (Moraxella catarrhalis): 32 to 64 µg/mL | MIC (Bacillus cereus): 16 to 32 µg/mL | MIC (Enterococcus faecium): 16 to 32 µg/mL | MIC (Bacillus subtilis): 8 to 16 µg/mL | MIC (Bacillus megarerium): 16 to 32 µg/mL

CC(C)(C)c1ccc(O)c(C=NN=C(N)c2cc[n+]([O-])cc2)c1 [Compound 4PYOfe]
MIC (Micrococcus luteus): 8 to 16 µg/mL | MIC (Moraxella catarrhalis): 8 to 16 µg/mL

CC(C)(C)c1cc(C=NN=C(N)c2cc[n+]([O-])cc2)cc(C(C)(C)C)c1 [Compound 4PYOff]
MIC [4]: 32 to 64 µg/mL | MIC [5]: 32 to 64 µg/mL | MIC [3]: 32 to 64 µg/mL | MIC [6]: 32 to 64 µg/mL | MIC (Micrococcus luteus): 32 to 64 µg/mL | MIC (Moraxella catarrhalis): 16 to 32 µg/mL | MIC (Bacillus cereus): 32 to 64 µg/mL | MIC (Enterococcus faecium): 32 to 64 µg/mL | MIC (Bacillus subtilis): 32 to 64 µg/mL | MIC [7]: 32 to 64 µg/mL | MIC [8]: 32 to 64 µg/mL | MIC [9]: 32 to 64 µg/mL

CC(C)(C)c1cccc(C=NN=C(N)c2cc[n+]([O-])cc2)c1O [Compound 4PYOfg]
MIC (Micrococcus luteus): 8 to 16 µg/mL | MIC (Moraxella catarrhalis): 4 to 8 µg/mL | MIC [8]: 32 to 64 µg/mL

CN[C@H](CC(C)C)C(=O)N[C@H]1C(=O)N[C@@H](CC(N)=O)C(=O)N[C@H]2C(=O)N[C@H]3C(=O)N[C@H](C(=O)N[C@H](C(=O)O)c4cc(O)cc(O)c4-c4cc3ccc4O)[C@H](O)c3ccc(c(Cl)c3)Oc3cc2cc(c3O[C@@H]2O[C@H](CO)[C@@H](O)[C@H](O)[C@H]2O[C@H]2C[C@](C)(N)[C@H](O)[C@H](C)O2)Oc2ccc(cc2Cl)[C@H]1O [Vanc., Vancomycin hydrochloride, reference compound]
MIC (S. haemolyticus): 8 µg/mL | MIC (E. faecalis; 18 h, E. faecalis EBH1): 0.12 µg/mL | MIC (E. faecalis; 18 h, E. faecalis Isolate 1): 0.25 µg/mL | MIC (E. faecalis; 18 h, E. faecalis Isolate 2): 0.25 µg/mL | MIC (E. faecalis; 18 h, E. faecalis Isolate 3): 0.12 µg/mL | MIC (E. faecalis; 18 h, E. faecalis Isolate 4): 16 µg/mL | MIC (E. faecalis; 18 h, E. faecalis Isolate 5): 2 µg/mL | MIC (E. faecalis; NCTC5957, 18 h, E. faecalis NCTC 5957): 0.25 µg/mL | MIC (B. bronchiseptica): > 16 µg/mL | MIC (S. aboni): 0.05 µg/mL | MIC (S. maltophilia): > 16 µg/mL | MIC (E. faecium; 18 h): 0.12 µg/mL | MIC (E. faecium; NCTC7171, 18 h): 0.12 µg/mL | MIC (S. marcesens): > 16 µg/mL | MIC ([10]; Culture 3001562): 4 to 8 µg/mL | MIC ([10]; Culture 3002043): 4 to 8 µg/mL | MIC ([10]; Culture 3002066): 4 to 8 µg/mL | MIC ([10]; Culture 3005323): > 16 µg/mL | MIC ([10]; Culture 3005426): 4 to 8 µg/mL | MIC ([10]; Culture 3102095): > 16 µg/mL | MIC ([10]; Culture 30053530): > 16 µg/mL | MIC (P. auriginosa): > 16 µg/mL | MIC (K. pneumoniae): > 16 µg/mL | MIC (MRSA; MRSA Isolate 1, upper value of MIC reading, in µg/mL): 0.12 | MIC (MRSA; MRSA Isolate 2, upper value of MIC reading, in µg/mL): 0.12 | MIC (MRSA; MRSA Isolate 3, upper value of MIC reading, in µg/mL): 0.12 | MIC (MRSA; MRSA Isolate 4, upper value of MIC reading, in µg/mL): 0.12 | MIC (MRSA; MRSA Isolate 5, upper value of MIC reading, in µg/mL): 0.12 | MIC (MRSA; MRSA Isolate 6, upper value of MIC reading, in µg/mL): 0.12 | MIC (MRSA; MRSA Isolate 7, upper value of MIC reading, in µg/mL): 0.12 | MIC (MRSA; MRSA Isolate 8, upper value of MIC reading, in µg/mL): 0.12 | MIC (MRSA; MRSA Isolate 9, upper value of MIC reading, in µg/mL): 0.12 | MIC (MRSA; Staphylococcus aureus, 18 h): 0.12 µg/mL | MIC (E. coli; E. coli W3110R+, upper value of MIC reading): > 16 µg/mL | MIC (E. coli; Escherichia coli, 18 h): > 16 µg/mL | MIC (S. epidemisis; 18 h): 8 µg/mL | MIC (S. epidemisis; NCTC11047, 18 h): 8 µg/mL | MIC (S. aureus; 18 h): 0.25 µg/mL | MIC (S. aureus; NCTC6571, 18 h): 0.05 µg/mL | MIC (S. aureus; NCTC10788, 18 h): 0.12 µg/mL | MIC (E. cloacae): > 16 µg/mL

quinupristin/dalfopristin
MIC (E. faecium isolates): ≤ 2 µg/mL
